Assays:
RXRβ = target: T1, RXRβ (Homo sapiens, UniProt P28702); experiment: Gal4-hybrid reporter gene assay, RXRβ; type: cell-based; conditions: Gal4-hybrid reporter gene assay; for EC50: mean±S.E.M., n≥3
T1 construct: CMV-hRXRβ-LBD; expressed in transfected cells; host or cells: HEK293T
T1 sequence (P28702 296-529 limits assumed): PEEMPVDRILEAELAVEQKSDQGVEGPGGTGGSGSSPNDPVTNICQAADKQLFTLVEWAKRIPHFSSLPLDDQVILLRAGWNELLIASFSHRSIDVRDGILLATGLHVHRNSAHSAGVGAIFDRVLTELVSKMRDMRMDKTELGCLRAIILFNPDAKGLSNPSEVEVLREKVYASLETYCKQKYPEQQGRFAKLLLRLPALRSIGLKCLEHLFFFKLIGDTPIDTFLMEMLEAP
Protocol: modified Eagle’s medium (DMEM), high glucose supplemented with 10% fetal calf serum (FCS), sodium pyruvate (1 mM), penicillin (100 U/mL), and streptomycin (100 μg/mL) at 37 °C and 5% CO2 and seeded in 96-well plates (3×10^4 cells/well). After 24 h, the medium was changed to Opti-MEM without supplements, and the cells were transiently transfected using Lipofectamine LTX reagent (Invitrogen) according to the manufacturer’s protocol. Five hours after transfection, the cells were incubated with the test compounds in Opti-MEM supplemented with penicillin (100 U/mL), streptomycin (100 μg/mL), and 0.1% DMSO for 15 h before luciferase activity was measured using the Dual -Glo Luciferase Assay System (Promega) according to the manufacturer’s protocol on a Tecan Spark l uminometer (Tecan Deutschland GmbH, Germany). Firefly luminescence was divided by Renilla luminescence and multiplied by 1000, resulting in relative light units (RLU) to normalize for transfection efficiency and cell growth. Fold activation was obtained by dividing the mean RLU of a sample by the mean RLU of the untreated control. All samples were tested in at least three biologically independent experiments in duplicates. For dose –response curve fitting and calculation of EC50 values, the equation “[Agonist] vs. response – Variable slope (four parameters)” was used in GraphPad Prism (version 5.04, GraphPad Software, La Jolla, CA, USA). […] (10 μM, NR4A) and bexarotene (1 µM, NR2B) served as the positive control. […]
150 μM in the same buffer containing 2-4% DMSO) in 21–26 injections (1 × 1 μL and 20 × 4 to 25 × 4 μL) with an injection interval of 120 s. As control experiments, the test compounds were titrated to the buffer, and the buffer was titrated to the protein under otherwise identical conditions. The heat rates of the compound-Nurr1 LBD titrations were analyzed using NanoAnalyze software (TA Instruments, New Castle, DE) with an independent binding model.

Nurr1 homodimer = target: T2, Nurr1 homodimer (Homo sapiens, UniProt P43354); experiment: Nurr1 LBD homodimerization assay (HTRF); type: biochemical; conditions: 30 μM, Tb3+-cryptate and sGFP labeled Nurr1 LBD
T2 construct: Tb^3+-cryptate labeled and sGFP-labeled Nurr1 LBD proteins; FRET acceptor consisted of sGFP-Nurr1 LBD
T2 sequence (P43354 360-595 limits assumed): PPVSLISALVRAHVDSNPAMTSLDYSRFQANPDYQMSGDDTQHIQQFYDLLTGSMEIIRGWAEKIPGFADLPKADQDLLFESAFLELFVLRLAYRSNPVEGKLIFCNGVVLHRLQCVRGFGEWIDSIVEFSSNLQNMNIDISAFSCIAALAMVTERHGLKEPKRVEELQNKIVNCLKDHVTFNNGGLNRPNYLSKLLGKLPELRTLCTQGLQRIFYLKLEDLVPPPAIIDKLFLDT
Protocol: To determine the molecular response of the Nurr1:RXR heterodimer on dual agonist binding, we employed homogenous time-resolved fluorescence resonance energy transfer (HTRF) based assays with labeled Nurr1 and RXR LBD proteins. Tb^3+-cryptate as streptavidin conjugate served as FRET donor and was coupled to biotinylated proteins. sGFP fusion proteins of the receptors of interest were used as FRET acceptors. Ligand effects on dimer formation were determined by titrating the sGFP-labeled dimer partner with a fixed concentration of the Tb^3+-labeled counterpart. […] The same effect was also observable for the natural product 1 (Figure S3).
Nurr1 dimerization assays (HTRF). Modulation of Nurr1 LBD homodimerization and heterodimerization of the LDBs of Nurr1 and RXRα was investigated by HTRF as reported previously4. Nurr1 LBD or RXRα LBD proteins labeled with sGFP were titrated against a fixed concentration of Tb3+-cryptate as streptavidin conjugate (Tb-SA) (610SATLF, Revvity) coupled to biotinylated Nurr1 LBD protein in the presence of test compounds at 30 µM or absence of compound as a negative control (apo). Assay solutions were prepared in buffer containing 25 mM HEPES pH 7.5, 150 mM KF, 5% (m/v) glycerol, 5 mM DTT, 0.1% (m/v) CHAPS and 1%
DMSO. The FRET donor complex was formed from biotinylated Nurr1 LBD (final concentration 0.188 nM) and Tb-SA (0.375 nM) and was kept constant. For the homodimerization assay, the FRET acceptor consisted of sGFP-Nurr1 LBD, which was titrated from 0.5 µM, while free sGFP was added to keep the total GFP content stable at 0.5 µM. […] Samples were equilibrated at room temperature for 2 h and fluorescence intensities (FI) after excitation at 340 nm were recorded at 520 nm for sGFP acceptor fluorescence and at 620 for Tb-SA donor fluorescence on a SPARK plate reader (Tecan Group Ltd.). […]
Evaluation of Nurr1-regulated gene expression. […] RNA concentration and purity were assessed using a NanoDrop One UV-vis spectrophotometer (Thermo Fisher Scientific) at 260/280 nm. […]

Chemical stability = type: physicochemical; conditions: compared to 2

Row | SMILES | max. act. (RXR) β (RXRβ) [fold] | EC50 (RXRβ) [µM] | Nurr1 homodimer formation (Nurr1 homodimer) | chemical stability (Chemical stability)
1 | Cc1c(C)n(-c2ccc(CC(=O)O)cc2)c2ccc(F)cc12 [compound 3] | 103±6 | 0.6 | markedly diminished | improved chemical stability
2 | Cc1c2c(n(-c3ccc(CC(=O)O)cc3)c1C)CCC(F)(F)C2 [compound 2] | 121±6 | 4.5 | markedly diminished | –

Reference: article PMC7618597, “Dual Nurr1/RXR agonism of valerenic acid and synthetic mimetics enables dimer-selective Nurr1 modulation” (ACS medicinal chemistry letters, 2025)
